Values quoted from earlier work as cited in patent publication US8420367B2, “Polynucleotides encoding mutant hydrolase proteins with enhanced kinetics and functional expression” (Promega Corporation, priority 2006, dated 2013).

Target: tetracysteine domain in a recombinant protein

With `O=C1OC2(c3ccccc31)c1ccc(O)c([As]3SCCS3)c1Oc1c2ccc(O)c1[As]1SCCS1` [FLASH, 4′,5′-bis(1,3,2-dithioarsolan-2-yl)fluorescein] as the compound, how does the dissociation constant read?
The dissociation constant was “nanomolar or lower”.
